# Results reported in US11357800B2, “Compositions for the treatment of neuropathic pain and sensitization of tumors to chemotherapies” (Henry Ford Health System, priority 2016, dated 2022).
# Where two headings read alike, the source gives them in different places.
# How the values were obtained:
# [1] = in vivo; cited from earlier work
# [2] = test system: DRG neurons; assay: Axonal growth of DRG neurons in microfluidic device
# Procedure: Primary rat DRG neurons were cultured in a microfluidic device that separates distal axons within the axonal compartment from their parent cell bodies within the cell body compartment as shown in FIG. 1 panel A. During 24 h culture, the neurons extended their axons to pass through a 450 nm long microgrooves, leading to only distal axons to grow into the axonal compartment (FIG. 1A). Oxaliplatin at various doses was applied into the axonal compartment (FIG. 1B).
# [3] = test system: human ovarian carcinoma OVCAR3; assay: Tumor cell viability, MTT assay, OVCAR3; type: cell-based; conditions: read-out: IC50 cytotoxicity of oxaliplatin
# Procedure: (§1) Tumor cell viability was measured using an MTT assay.
# [4] = test system: human colon carcinoma HCT-116; assay: Tumor cell viability, MTT assay, HCT-116; type: cell-based; conditions: read-out: IC50 cytotoxicity of oxaliplatin
# Procedure: as §1
# [5] = test system: intraepidermal nerve fibers, sciatic nerve small fibers, DRG neurons; assay: Histology and TEM of footpad, sciatic nerve and DRG of tumor bearing mice; type: in vivo, mouse
# Excerpt: Intraepidermal nerve fibers (IENFs) are sensory nerves that innervate dermis and epidermis. […] Calcitonin gene-related peptide (CGRP) DRG neurons are primary sensory neurons encoding heat and cold perception.
# [6] = test system: P-gp1, ABCC1, cleaved Caspase 3; conditions: tumor tissues
# [7] = test system: miR-15b, miR-26a, miR-125b; conditions: tumor tissues
# [8] = one randomized trial; cited from earlier work
# [9] = double immunofluorescent analysis
smiles,measurement,setting,value
Cc1c(C)c2c(c(C)c1O)CC[C@@](C)(CCC[C@H](C)CCC[C@H](C)CCCC(C)C)O2 [α-tocopherol],antineuropathic effect on oxaliplatin-induced behavioral alterations,[1],about 50%
O=C1[O][Pt]2([NH][C@@H]3CCCC[C@H]3[NH]2)[O]C1=O [Oxaliplatin],axonal growth inhibited,"[2]; oxaliplatin 3.6 nM (reduced concentration, IRF of 2.5)",27%
same,axonal growth suppressed,[2]; oxaliplatin 9.1 nM (regular dose),50%
same,IC50,"[2]; read-out: Half Maximal Inhibitory Concentration, IC50, growth of axons, oxaliplatin applied into the axonal compartment, 24 h",0.0091 µM
same,IC50,"[3]; OVCAR3, with CEC derived exosomes (3×10^2 exosomes)",2.3 ± 0.1 µM
same,IC50,"[3]; OVCAR3, without CEC derived exosomes",6.5 ± 1.1 µM
same,IC50,"[4]; HCT-116, with CEC derived exosomes (3×10^2 exosomes)",6.9 ± 1 µM
same,IC50,"[4]; HCT-116, without CEC derived exosomes",16.1 ± 2.1 µM
same,IEFN density assayed by the number of PGP9.5 positive fibers,[5]; dermal tissues of tumor bearing mice,significantly reduced
same,diameters of CGRP positive DRG neurons,[5]; [9],selectively reduced
same,diameters of NF200 positive DRG neurons,[5]; [9],"reduced diameters of CGRP, but not NF200 positive neurons"
same,protein level of ABCC1,[6],increased
same,protein level of P-gp1,[6],increased
same,miR-15b level,[7],significantly reduced
same,miR-26a level,[7],significantly reduced
CNCCC=C1c2ccccc2CCc2ccccc21 [nortriptyline],therapy of CIPN symptoms,[8],ineffective
